Experimental data as given in patent US20210255184A1, “Biosensor Device and Methods” (The New Zealand Institute for Plant and Food Research …, priority 2018, published 2021).

Assays:
OscaOR1/Orco = details: ref 47; * estimated visually from graph; cited from earlier work
Or35a = molecular target: T1, Or35a (Drosophila melanogaster, UniProt Q9V3Q2); assay: EIS sensor, Or35a liposomes on gold electrode; type: biochemical
T1 construct: his-tag; made in house; host or cells: baculovirus-infected Sf9 cells
T1 sequence (Q9V3Q2 1-409): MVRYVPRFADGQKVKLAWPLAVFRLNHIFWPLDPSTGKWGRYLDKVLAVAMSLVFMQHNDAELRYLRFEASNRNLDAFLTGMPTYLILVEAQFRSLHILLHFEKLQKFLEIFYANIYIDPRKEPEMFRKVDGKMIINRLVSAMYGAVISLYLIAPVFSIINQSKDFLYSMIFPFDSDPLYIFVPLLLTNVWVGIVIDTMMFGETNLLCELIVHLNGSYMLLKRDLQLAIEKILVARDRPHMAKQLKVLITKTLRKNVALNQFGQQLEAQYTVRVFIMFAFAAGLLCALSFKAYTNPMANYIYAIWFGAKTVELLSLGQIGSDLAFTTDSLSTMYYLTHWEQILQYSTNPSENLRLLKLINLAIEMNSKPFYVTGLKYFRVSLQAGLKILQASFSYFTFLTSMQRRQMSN
Method: (§1) PBS (pH=7.4) was used as an electrolyte to conduct electrochemical measurements. PBS buffer was degassed for about 30 minutes prior to electrochemical measurements. Odorant solutions of concentration ranging from 1 aM to 1 μM were prepared by sequential dilution in PBS solution containing 1% DMSO. OR immobilized electrodes were incubated in relevant odorant solution for ˜30 minutes each and washed gently with PBS before EIS measurements.
(§2) EIS measurements were done in a 3 electrode cell containing Ag/AgCl (3 M NaCl, 0.209 V vs. SHE) reference electrode, coiled platinum wire as a counter electrode and the gold disk as a working electrode at a fixed voltage of −0.7 using PalmSens potentiostat. Degassed PBS was used as an electrolyte.
(§3) EIS measurements were performed on gold electrodes functionalised with OrX liposomes (either Or10a or Or22a), OrX/Orco liposomes, or empty liposomes prior to and after target ligand or control ligand incubation with increasing concentrations (1 aM to 100 μM). Dose response curves were obtained by defining sensor response as −(ΔRp/R^op) versus log[C(Ligand)]. FIG. 4a presents the EIS response in terms of Nyquist plot for the Or10a liposome functionalized sensors when exposed to a solution containing one of the known target ligands of Or10a, methyl salicylate, at various concentrations. […] The dose response curve (FIG. 4b) was obtained by plotting the change in polarization resistance −(ΔRp/R^op) versus log[conc(Ligand)], as the sensor response. Here, Rp is the polarization resistance after Or10a liposome-target interaction and R^op is the polarization resistance before Or10a liposome-target interaction.
(§4) Prior to use, 1 mg liposomes (500 μl at 2 mg/ml) were defrosted on ice and then destabilized by incubating with 0.2% CHAPS for 15 min at room temperature. […] All Or35a/Orco integrated liposomes samples were analysed by Western blot before being aliquoted and stored at −80° C. Integration of Or35a/Orco into liposomes was assessed by density gradient ultracentrifugation (DGU) using Accudenz (Accurate Chemical & Scientific Corporation, USA). […]

Or35a/Orco = molecular target: T2, Or35a/Orco (Drosophila melanogaster, UniProt Q9V3Q2); assay: EIS sensor, Or35a/Orco liposomes on gold electrode; type: biochemical
T2 construct: his-tag; made in house; host or cells: baculovirus-infected Sf9 cells
T2 sequence (Q9V3Q2 1-409): T1 sequence (Q9V3Q2 1-409)
T2 sequence (Q9VNB5 1-486 partner): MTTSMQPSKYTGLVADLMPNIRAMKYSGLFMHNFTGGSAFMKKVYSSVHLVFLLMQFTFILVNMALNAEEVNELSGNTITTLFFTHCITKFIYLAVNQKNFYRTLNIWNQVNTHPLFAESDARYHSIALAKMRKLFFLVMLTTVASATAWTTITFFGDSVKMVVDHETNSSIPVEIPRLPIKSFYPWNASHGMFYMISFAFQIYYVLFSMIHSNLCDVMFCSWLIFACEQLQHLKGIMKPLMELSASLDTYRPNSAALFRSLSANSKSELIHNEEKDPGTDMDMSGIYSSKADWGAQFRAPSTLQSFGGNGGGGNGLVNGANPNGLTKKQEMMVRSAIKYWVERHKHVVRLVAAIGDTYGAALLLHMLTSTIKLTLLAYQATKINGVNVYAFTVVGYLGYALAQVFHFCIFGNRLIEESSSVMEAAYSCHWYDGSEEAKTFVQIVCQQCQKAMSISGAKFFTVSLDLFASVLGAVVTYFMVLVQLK
Method: as §1
as §2, with “electrolyte. […]” for “electrolyte.”
as §4

[1] = EIS sensor, empty liposomes (specificity control); type: biochemical; details: empty liposomes without receptor
Method: PBS solution was prepared by immersing one tablet of PBS in 200 ml of milli-Q water (according to manufacturers instructions) and filtered using 0.2-μm syringe filter. The pH of the prepared buffer solution was measured with a pH meter. OrX liposomes or OrX/Orco liposomes were diluted 100 fold in PBS buffer solution (pH=7.4) and the COOH-activated electrodes were incubated in that buffer solution at room temperature for one hour. Then, the electrodes were washed extensively with PBS buffer solution to wash out any unbound liposomes.
as §1, §2
as §3, with “Here, Rp is the polarization resistance after Or10a liposome-target interaction and R^op is the polarization resistance before Or10a liposome-target interaction.” left out

DiOR1/Orco = details: ref 48; * estimated visually from graph; cited from earlier work
PxOR1/Orco = details: ref 14; * estimated visually from graph; cited from earlier work
DOr85b/Orco = molecular target: T3, DOr85b/Orco (Drosophila melanogaster, UniProt Q9VHQ6); details: cited from earlier work
T3 construct: host or cells: Xenopus oocytes
T3 sequence (Q9VHQ6 1-389): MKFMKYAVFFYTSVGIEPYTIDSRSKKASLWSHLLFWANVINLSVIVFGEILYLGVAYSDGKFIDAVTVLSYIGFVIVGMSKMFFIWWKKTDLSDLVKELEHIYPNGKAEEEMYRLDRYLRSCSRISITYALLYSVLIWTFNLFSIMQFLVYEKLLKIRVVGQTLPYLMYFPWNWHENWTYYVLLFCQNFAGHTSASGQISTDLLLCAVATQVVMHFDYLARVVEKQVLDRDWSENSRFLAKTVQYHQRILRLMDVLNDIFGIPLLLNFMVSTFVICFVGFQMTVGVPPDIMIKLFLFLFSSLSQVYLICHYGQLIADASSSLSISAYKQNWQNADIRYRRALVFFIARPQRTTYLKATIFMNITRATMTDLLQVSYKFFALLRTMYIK
T3 sequence (Q9VNB5 1-486 partner): T2 sequence (Q9VNB5 1-486 partner)

AgOr48/Orco = details: cited from earlier work
Or71a/Orco = molecular target: T4, Or71a/Orco (Drosophila melanogaster, UniProt Q9VUK5); assay: Droplet interface bilayer ion channel recording, Or71a/Orco; type: biochemical; details: DIB, 10 μM ligand, holding potential 0 mV and −100 mV
T4 construct: his-tag; made in house; host or cells: baculovirus-infected Sf9 cells
T4 sequence (Q9VUK5 1-378): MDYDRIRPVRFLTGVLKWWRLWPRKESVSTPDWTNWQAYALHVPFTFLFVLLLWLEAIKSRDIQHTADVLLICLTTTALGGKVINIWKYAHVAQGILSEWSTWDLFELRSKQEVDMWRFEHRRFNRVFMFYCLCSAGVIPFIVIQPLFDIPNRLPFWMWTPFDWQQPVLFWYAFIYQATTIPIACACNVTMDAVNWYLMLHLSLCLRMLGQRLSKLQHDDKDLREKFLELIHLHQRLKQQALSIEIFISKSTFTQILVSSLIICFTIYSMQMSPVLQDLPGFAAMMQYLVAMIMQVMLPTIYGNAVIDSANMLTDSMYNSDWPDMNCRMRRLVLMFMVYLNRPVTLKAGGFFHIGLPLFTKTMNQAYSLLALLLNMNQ
T4 sequence (Q9VNB5 1-486 partner): T2 sequence (Q9VNB5 1-486 partner)
Method: Bilayers were formed between two droplets formed within a PMMA chamber filled with 1 mg/ml DPhPC in undecane and AR20 silicone oil (1:1 ratio). The first step in this process was to deposit a 50 nl droplet onto the stationary silver electrode positioned at the base of the well; this droplet consisted of an aqueous solution containing 300 mM NaCl, 10 mM HEPES (pH 7.4), containing the odorant receptor proteins in proteoliposomes (at a 1:20 dilution from the proteoliposome preparation), […] The second droplet was mounted onto a second silver electrode which was held in the oil and lipid mixture using a YOU-3 manipulator (Narishige, Japan). […] Once the droplets were in contact a bilayer formed spontaneously within 1 minute (as determined by visual assessment and an increase in the bilayer capacitance as measured with a capacitance voltage protocol using the Pico2 amplifier). Insertion of an active channel was determined by a change in current while clamping the voltage at 50 mV. […]
Currents were recorded with a Pico2 or an eONE-HS amplifier (Tecella, USA and Elements, Italy, respectively) with built-in digitizers, operating in gap-free acquisition mode at a sampling frequency of 20 kHz, and using a 0.8 or 1.5 kHz low pass filter. […]
Data were analysed using ANA (Dr Pusch, Genoa), EDR (Elements, Italy) and WinWCP (Dr Dempster, University of Strathclyde). […]

ECB (Z) OR3/Orco = details: cited from earlier work
AgOr65/Orco = details: cited from earlier work
BmOR3/Orco = details: ref 14; * estimated visually from graph; cited from earlier work
MsiOR1/Orco = details: ref 48; * estimated visually from graph; cited from earlier work
BmOR1/Orco = details: ref 14; * estimated visually from graph; cited from earlier work
[2] = EIS dose response, ligand 1 aM to 100 μM

For `CC/C=C/CCCCCCCCCCO` [E11-14:OH], which Sensitivity limit (OscaOR1/Orco) is on record?
The Sensitivity limit was 10^−7 M*.

For `CCC/C=C/C=O` [E2-hexenal], which “limit of detection (LOD)” value (Or35a; [2]) is on record?
Its value is 10 fM.

What about the “Detection Range” value (Or35a; Table 3) of the same molecule?
The value was 10^−14 to 10^−6 M.

What about the limit of detection (Or35a/Orco; [2]) of the same molecule?
The limit of detection was 0.1 fM.

And the “Detection Range” value (Or35a/Orco; Table 3)?
The value was 10^−16-10^−6 M.

What about the “sensor response to ligand” value [1] of the same molecule?
Its value is “negligible responses”.

Which Sensitivity limit (DiOR1/Orco) does the source give for `CCCC/C=C/CCCCCCCCCC=O` [Ell-16:Ald] here?
Its Sensitivity limit is 10^−7 M*.

For `CCCC/C=C\CCCCCCCCCC=O` [Z11-16:Ald], which Sensitivity limit (PxOR1/Orco) is on record?
The Sensitivity limit was 10^−8-10^−6 M*.

For `CCCCCC(C)=O` [2-heptanone], which EC50 (DOr85b/Orco) is on record?
The EC50 was 45.6 µM.

What about the Sensitivity limit (DOr85b/Orco; ref 14, * estimated visually from graph) of the same molecule?
The Sensitivity limit was 10^−8-10^−6 M*.

Which “Ec50 (given as Log)” value (AgOr48/Orco; log value) does the source give for `CCCCCCCCC1CCC(=O)O1` (stereo not shown) [g-dodecalactone] here?
Its value is “Log = −7.01”.

And the “Sensitivity limit (given as Log)” value (AgOr48/Orco; ref 45, * estimated visually from graph)?
The value was “Log = −8*”.

Which ion channel activity (Or71a/Orco) does the source give for `CCc1ccc(OC)c(O)c1` [4-ethyl guaiacol] here?
Its ion channel activity is “active ligand gated ion channel”.

For `CC/C=C/CCCCCCCCCCOC(C)=O` [E11 pheromone], which Sensitivity limit (ECB (Z) OR3/Orco) is on record?
Its Sensitivity limit is 10^−9 M.

Which “Ec50 (given as Log)” value (AgOr65/Orco; log value) does the source give for `C=CCc1ccc(O)c(OC)c1` [eugenol] here?
Its value is “Log = −6.54”.

And the “Sensitivity limit (given as Log)” value (AgOr65/Orco; ref 43, * estimated visually from graph)?
Its value is “Log = −7*”.

For `CCC/C=C\C=C\CCCCCCCCC=O` [Bonnbykal], which Sensitivity limit (BmOR3/Orco) is on record?
The Sensitivity limit was 10^−8-10^−6 M*.

For `CCCC/C=C\CCCCCCCCCCOC(C)=O` [Z11-16:Ac], which Sensitivity limit (MsiOR1/Orco) is on record?
Its Sensitivity limit is 10^−7 M*.

With `CCC/C=C\C=C\CCCCCCCCCO` [Bonnbykol] as the molecule, how does the Sensitivity limit (BmOR1/Orco) read?
Its Sensitivity limit is 10^−8-10^−6 M*.
